In brackets after ≈: the same amount, converted by molar mass.
Legend:
[1] = test system: Cryptococcus neoformans var. grubii clinical isolates and multi-azole resistant strains; assay: microbe, parasite or virus in culture; type: cell-based; details: E-test; for MIC range: 14 isolates (Nos. 1-14); for MIC: Cryptococcus neoformans
From the text: Six isolates of cryptococcus were obtained from skin-infected cats and five from systemically infected cats, for a total of 11 strains.
(§1) Three isolates of cryptococcus were acquired from skin-infected humans.
(§2) All of the above-acquired isolates were Cryptococcus neoformans var. grubii strains (type A).
(§3) Further, as described below, 3 multidrug-resistant strains resistant to fluconazole (FLCZ) and voriconazole (VRCZ) as azole-based antifungal agents were acquired.
(§4) Thereafter, 12 colonies generated on the plate were inoculated on Sabouraud glucose agar medium containing 5 μg/ml of VRCZ. This was cultured at room temperature for 10 days, and the obtained colonies were further subcultured, to obtain 3 azole-based multidrug-resistant strains.
Sensitivity to fluconazole (FLCZ), itraconazole (ITCZ) and voriconazole (VRCZ) was evaluated using the E-test. […] E-test gradient strips were purchased from AB BIODISK. The MICs for FLCZ, ITCZ and VRCZ were determined after culturing at 35° C. for 72 hours. Each isolate was tested twice at shifted times, and each test included twice measurements.

[2] = test system: Cryptococcus neoformans var. grubii clinical isolates and multi-azole resistant strains; assay: CLSI M27-A3 broth microdilution MIC assay; type: cell-based; details: for MIC: Cryptococcus neoformans
From the text: Six isolates of cryptococcus were obtained from skin-infected cats and five from systemically infected cats, for a total of 11 strains. One strain of cat skin cryptococcus and one strain of cat systemic cryptococcus were fluconazole-resistant.
as §1, §2, §3
as §4, with “Clinically separated fluconazole (FLCZ) resistant Cryptococcus neoformans cells (2.3×10^5) were inoculated on Sabouraud glucose agar medium containing 3 μg/ml of voriconazole (VRCZ), and cultured at room temperature for 7 days. Thereafter,” for “Thereafter,”
The strains obtained in Example 1 were maintained on Sabouraud glucose agar medium until the test of sensitivity to antifungal compounds.
Sensitivity to ravuconazole (RVCZ) was determined according to the CLSI M27-A3 guideline using broth microdilution assay. The minimum inhibitory concentration (MIC) was measured after culturing at 35° C. for 72 hours. MIC was defined as the lowest concentration that induces significant inhibition of growth (inhibition of about 50% or more).
CLSI M27-A3 test and E-test MIC assay were performed using Candida parapsilosis ATCC 22019 and Candida kruzei ATCC 6258 purchased from ATCC as controls. As a result, a high correlation was observed between the MIC results of the azole-based drugs obtained in the CLSI M27-A3 test and the E-test, so the results of both were compared.

[3] = 72 h, Strain No. 1, Feline cutaneous cryptococcosis, 35° C.
[4] = 72 h, Strain No. 2, Feline systemic cryptococcosis, 35° C.
[5] = 72 h, Strain No. 3, Feline systemic cryptococcosis, 35° C.
[6] = 72 h, Strain No. 4, Feline cutaneous cryptococcosis, 35° C.
[7] = 72 h, Strain No. 5, Feline cutaneous cryptococcosis, 35° C.
[8] = 72 h, Strain No. 6, Feline systemic cryptococcosis, 35° C.
[9] = 72 h, Strain No. 7, Feline systemic cryptococcosis, 35° C.
[10] = 72 h, Strain No. 8 (FLCZ resistant strain), Feline systemic cryptococcosis, 35° C.
[11] = 72 h, Strain No. 9, Feline systemic cryptococcosis, 35° C.
[12] = 72 h, Strain No. 10, Feline cutaneous cryptococcosis, 35° C.
[13] = 72 h, Strain No. 11, Human cutaneous cryptococcosis, 35° C.
[14] = 72 h, Strain No. 12, Human cutaneous cryptococcosis, 35° C.
[15] = 72 h, Strain No. 13, Human cutaneous cryptococcosis, 35° C.
[16] = 72 h, Strain No. 14 (FLCZ resistant strain), Feline cutaneous cryptococcosis, 35° C.
[17] = 72 h, Strain No. 15, Multi-azole resistance strain, 35° C.
[18] = 72 h, Strain No. 16, Multi-azole resistance strain, 35° C.
[19] = 72 h, Strain No. 17, Multi-azole resistance strain, 35° C.
[20] = azole-based multidrug-resistant strains (Nos. 15-17)
[21] = read-out: average MIC, 14 isolates (Nos. 1-14)

Compound	MIC range [1] [µg/mL]	MIC [1, 3] [µg/mL]	MIC [1, 4] [µg/mL]	MIC [1, 5] [µg/mL]	MIC [1, 6] [µg/mL]	MIC [1, 7] [µg/mL]	MIC [1, 8] [µg/mL]	MIC [1, 9] [µg/mL]	MIC [1, 10] [µg/mL]	MIC [1, 11] [µg/mL]	MIC [1, 12] [µg/mL]	MIC [1, 13] [µg/mL]	MIC [1, 14] [µg/mL]	MIC [1, 15] [µg/mL]	MIC [1, 16] [µg/mL]	MIC [1, 17] [µg/mL]	MIC [1, 18] [µg/mL]	MIC [1, 19] [µg/mL]	MIC [1, 20] [µg/mL]	MIC [1, 21] [µg/mL]	also measured
OC(Cn1cncn1)(Cn1cncn1)c1ccc(F)cc1F [FLCZ, fluconazole]	<0.016 to 128	3 (≈ 9.8 µM)	< 0.016	6 (≈ 19.6 µM)	16 (≈ 52.2 µM)	32 (≈ 104 µM)	2 (≈ 6.53 µM)	1.5 (≈ 4.9 µM)	> 256	1.5 (≈ 4.9 µM)	14 (≈ 45.7 µM)	1.5 (≈ 4.9 µM)	1.5 (≈ 4.9 µM)	0.75 (≈ 2.45 µM)	128 (≈ 418 µM)	> 256	> 256	> 256	> 256	17.3 (≈ 56.5 µM)	
CCC(C)n1ncn(-c2ccc(N3CCN(c4ccc(OCC5COC(Cn6cncn6)(c6ccc(Cl)cc6Cl)O5)cc4)CC3)cc2)c1=O (stereo not shown) [ITCZ, itraconazole]	<0.002 to 0.75	0.047 (≈ 0.0666 µM)	0.002 (≈ 0.00283 µM)	0.23 (≈ 0.326 µM)	0.018 (≈ 0.0255 µM)	0.5 (≈ 0.709 µM)	0.064 (≈ 0.0907 µM)	0.38 (≈ 0.539 µM)	0.25 (≈ 0.354 µM)	0.23 (≈ 0.326 µM)	0.75 (≈ 1.06 µM)	0.19 (≈ 0.269 µM)	0.125 (≈ 0.177 µM)	0.125 (≈ 0.177 µM)	0.38 (≈ 0.539 µM)	> 32	> 32	> 32	> 32	0.235 (≈ 0.333 µM)	
C[C@@H](c1nc(-c2ccc(C#N)cc2)cs1)[C@](O)(Cn1cncn1)c1ccc(F)cc1F [RVCZ, ravuconazole]																					MIC range ([2]; 14 isolates (Nos. 1-14), CLSI M27-A3): <0.003125 to 0.25 µg/mL; MIC ([2]; 72 h, Strain No. 1, Feline cutaneous cryptococcosis, CLSI M27-A3, 35° C.): 0.0312 µg/mL (≈ 0.0714 µM); MIC ([2]; 72 h, Strain No. 2, Feline systemic cryptococcosis, CLSI M27-A3, 35° C.): 0.0312 µg/mL (≈ 0.0714 µM); MIC ([2]; 72 h, Strain No. 3, Feline systemic cryptococcosis, CLSI M27-A3, 35° C.): 0.0312 µg/mL (≈ 0.0714 µM); MIC ([2]; 72 h, Strain No. 4, Feline cutaneous cryptococcosis, CLSI M27-A3, 35° C.): 0.0625 µg/mL (≈ 0.143 µM); MIC ([2]; 72 h, Strain No. 5, Feline cutaneous cryptococcosis, CLSI M27-A3, 35° C.): 0.0625 µg/mL (≈ 0.143 µM); MIC ([2]; 72 h, Strain No. 6, Feline systemic cryptococcosis, CLSI M27-A3, 35° C.): 0.125 µg/mL (≈ 0.286 µM); MIC ([2]; 72 h, Strain No. 7, Feline systemic cryptococcosis, CLSI M27-A3, 35° C.): 0.0625 µg/mL (≈ 0.143 µM); MIC ([2]; 72 h, Strain No. 8 (FLCZ resistant strain), Feline systemic cryptococcosis, CLSI M27-A3, 35° C.): 0.125 µg/mL (≈ 0.286 µM); MIC ([2]; 72 h, Strain No. 9, Feline systemic cryptococcosis, CLSI M27-A3, 35° C.): 0.0312 µg/mL (≈ 0.0714 µM); MIC ([2]; 72 h, Strain No. 10, Feline cutaneous cryptococcosis, CLSI M27-A3, 35° C.): 0.125 µg/mL (≈ 0.286 µM); MIC ([2]; 72 h, Strain No. 11, Human cutaneous cryptococcosis, CLSI M27-A3, 35° C.): 0.0312 µg/mL (≈ 0.0714 µM); MIC ([2]; 72 h, Strain No. 12, Human cutaneous cryptococcosis, CLSI M27-A3, 35° C.): 0.0312 µg/mL (≈ 0.0714 µM); MIC ([2]; 72 h, Strain No. 13, Human cutaneous cryptococcosis, CLSI M27-A3, 35° C.): 0.0312 µg/mL (≈ 0.0714 µM); MIC ([2]; 72 h, Strain No. 14 (FLCZ resistant strain), Feline cutaneous cryptococcosis, CLSI M27-A3, 35° C.): 0.125 µg/mL (≈ 0.286 µM); MIC ([2]; 72 h, Strain No. 15, Multi-azole resistance strain, CLSI M27-A3, 35° C.): 0.5 µg/mL (≈ 1.14 µM); MIC ([2]; 72 h, Strain No. 16, Multi-azole resistance strain, CLSI M27-A3, 35° C.): 0.5 µg/mL (≈ 1.14 µM); MIC ([2]; 72 h, Strain No. 17, Multi-azole resistance strain, CLSI M27-A3, 35° C.): 0.25 µg/mL (≈ 0.571 µM); MIC ([2]; azole-based multidrug-resistant strains (Nos. 15-17), CLSI M27-A3): 0.25 to 0.5 µg/mL (≈ 0.571 to 1.14 µM); MIC ([2]; read-out: average MIC, 14 isolates (Nos. 1-14), CLSI M27-A3): 0.0376 µg/mL (≈ 0.0859 µM)
C[C@@H](c1ncncc1F)[C@](O)(Cn1cncn1)c1ccc(F)cc1F [VRCZ, voriconazole]	<0.002 to 0.125	0.008 (≈ 0.0229 µM)	< 0.002	0.032 (≈ 0.0916 µM)	0.064 (≈ 0.183 µM)		0.047 (≈ 0.135 µM)	0.032 (≈ 0.0916 µM)	0.094 (≈ 0.269 µM)	0.012 (≈ 0.0344 µM)	0.023 (≈ 0.0658 µM)	0.003 (≈ 0.00859 µM)	0.006 (≈ 0.0172 µM)	0.003 (≈ 0.00859 µM)	0.023 (≈ 0.0658 µM)	12 (≈ 34.4 µM)	8 (≈ 22.9 µM)	6 (≈ 17.2 µM)	6 to 12 (≈ 17.2 to 34.4 µM)	0.036 (≈ 0.103 µM)	

From patent US12121512B2, “Anti-fungal agent” (priority 2019, dated 2024)
